These results are taken from ChEMBL document CHEMBL1151824, “Semisynthesis and biological activity of stemofoline alkaloids” (2009).

In test [1] the test system is Staphylococcus aureus. Briefly: Antimicrobial activity against Staphylococcus aureus ATCC 25923 after 24 hrs by broth dilution technique. The class given is functional.
The test system of test [2] is Pseudomonas aeruginosa. Briefly: Antimicrobial activity against Pseudomonas aeruginosa ATCC 27853 after 24 hrs by broth dilution technique. The format is functional. For orientation: Dilution methods test growth across graded concentrations, often in twofold steps.
Test [3] deals with Candida albicans. Briefly: Antimicrobial activity against Candida albicans ATCC 90028 after 24 hrs by broth dilution technique. The class given is functional. Conditions: ATCC 90028, 24 h.
The target in test [4] is Acetylcholinesterase (Homo sapiens) (UniProt P22303). Briefly: Inhibition of AChE assessed as white zone of inhibition after 20 mins by TLC bioautography.
Acetylcholinesterase (Homo sapiens), sequence (P22303 whole entry): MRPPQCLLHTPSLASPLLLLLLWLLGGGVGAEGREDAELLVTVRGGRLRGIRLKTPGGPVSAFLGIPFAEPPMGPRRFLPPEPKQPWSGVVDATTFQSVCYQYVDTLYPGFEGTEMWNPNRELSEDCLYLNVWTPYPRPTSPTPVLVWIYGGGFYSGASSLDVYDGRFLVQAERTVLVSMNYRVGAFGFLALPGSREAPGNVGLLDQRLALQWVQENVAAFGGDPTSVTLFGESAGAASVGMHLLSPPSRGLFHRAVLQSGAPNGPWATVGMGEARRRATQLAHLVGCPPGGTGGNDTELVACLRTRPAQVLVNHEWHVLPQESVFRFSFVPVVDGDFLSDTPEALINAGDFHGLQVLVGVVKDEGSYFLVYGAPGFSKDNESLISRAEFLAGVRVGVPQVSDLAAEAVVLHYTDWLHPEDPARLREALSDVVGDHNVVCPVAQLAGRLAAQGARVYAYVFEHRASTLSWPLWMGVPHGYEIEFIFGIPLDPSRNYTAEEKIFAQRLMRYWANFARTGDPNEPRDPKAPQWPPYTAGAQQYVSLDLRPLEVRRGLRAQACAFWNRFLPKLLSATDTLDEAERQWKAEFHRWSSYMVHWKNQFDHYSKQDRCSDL
[5] abbreviates: Pseudomonas aeruginosa, ATCC 27853, 24 h, read-out: MIC.

Converted amounts (≈) assume the structure as drawn.

Consider `COC1=C(C)C(=O)O/C1=C1\O[C@@]23O[C@H]4C[C@@H]([C@H]2[C@@H]1C)N1CC[C@H]3[C@@]41/C=C/C(C)O` (mixture of isomers; 1), for which the MIC was no less than 125 µg/mL in test [1] (ATCC 25923, 24 h); 62.5 µg/mL in test [2] (setting [5]); no less than 125 µg/mL in test [3].
For the compound `COC1=C(C)C(=O)O/C1=C1\O[C@@]23O[C@H]4C[C@@H]([C@H]2[C@@H]1C)N1CC[C@H]3[C@@]41CC[C@@H](C)O` (mixture of isomers), the MIC is 2.5 ×10⁻¹ nmol in test [4]; no less than 125 µg/mL in test [1] (ATCC 25923, 24 h); 62.5 µg/mL in test [2] (setting [5]); no less than 125 µg/mL in test [3].
On to `COC1=C(C)C(=O)O/C1=C1\O[C@@]23O[C@H]4C[C@@H]([C@H]2[C@@H]1C)N1CC[C@H]3[C@@]41CCC(C)O` (mixture of isomers), for which the MIC was 2.5 ×10⁻² nmol in test [4]; no less than 125 µg/mL in test [1] (ATCC 25923, 24 h); no less than 125 µg/mL in test [2] (setting [5]); no less than 125 µg/mL in test [3].
For the compound GENTAMICIN, the MIC in test [1] and in test [2] was 1.41 µg/mL in each case.
Turning to `COC1=C(C)C(=O)O/C1=C1\O[C@@]23O[C@H]4C[C@@H]([C@H]2[C@@H]1C)N1CC[C@H]3[C@@]41/C=C/C(C)O` (mixture of isomers; 2) [listing 1 of 2 here], the MIC in test [4] stood at 2.5 ×10⁻¹ nmol.
As to `COC1=C(C)C(=O)O/C1=C1\O[C@@]23O[C@H]4C[C@@H]([C@H]2[C@@H]1C)N1CC[C@H]3[C@@]41C` (stereo in doubt; 15) [METHYLSTEMOFOLINE], the MIC in test [1] (ATCC 25923, 24 h) was no less than 125 µg/mL; in test [2] (setting [5]) it was no less than 125 µg/mL; in test [3] it was no less than 125 µg/mL.
Regarding `CNC(=O)Oc1ccc2c(c1)[C@]1(C)CCN(C)[C@@H]1N2C`, in test [4], the MIC was found to be 3.6 ×10⁻⁴ nmol.
Turning to `COC1=C(C)C(=O)O/C1=C1\O[C@@]23O[C@H]4C[C@@H]([C@H]2[C@@H]1C)N1CC[C@H]3[C@@]41/C=C/C(C)O` (mixture of isomers; 2) [listing 2 of 2 here], in test [2], the MIC result is listed as “>=125 ug ml-1”.
In turn, `C[C@@H]1[C@H](O)[C@@H](C)/C=C/C=C/C=C/C=C/C=C/C=C/C=C/[C@H](O[C@@H]2O[C@H](C)[C@@H](O)[C@H](N)[C@@H]2O)C[C@@H]2O[C@](O)(C[C@@H](O)C[C@@H](O)[C@H](O)CC[C@@H](O)C[C@@H](O)CC(=O)O[C@H]1C)C[C@H](O)[C@H]2C(=O)O` [AMPHOTERICIN B] registered an MIC in test [3] of 0.35 µg/mL (≈ 0.379 µM).
Take `COC1=C(C)C(=O)O/C1=C1\O[C@@]23O[C@H]4C[C@@H]([C@H]2[C@@H]1C)N1CC[C@H]3[C@@]41C` (stereo in doubt; 3): in test [4], the MIC came out at 2.9 ×10⁻¹ nmol.
Consider `CC/C=C/C12C3CC4C5[C@@H](C)/C(=C6/OC(=O)C(C)=C6OC)O[C@]5(O3)C1CCN42` (stereo partly drawn), for which the figures for the MIC in test [4] and in test [2] (setting [5]) were 1.3 ×10⁻² nmol and no less than 125 µg/mL, respectively.
